In the NIST ThermoML archive (doi:10.1021/je800579j):
± gives the expanded uncertainty stated by the source.

Experiment: xn = mol fraction of the nth substance listed
Settings: Liquid, Pycnometric method

Cc1ccccc1C [1,2-dimethylbenzene] + C1COCCO1
mass density [kg/m3]
Settings | 288.15 K | 293.15 K | 298.15 K | 303.15 K | 308.15 K | 313.15 K | 318.15 K
x2 = 0 | 884.09 ± 0.67 | 879.83 ± 0.66 | 875.57 ± 0.67 | 871.31 ± 0.67 | 867.05 ± 0.68 | 862.79 ± 0.68 | 858.53 ± 0.69
x2 = 0.0672 | 891.2 ± 0.7 | 886.85 ± 0.67 | 882.5 ± 0.68 | 878.15 ± 0.68 | 873.8 ± 0.69 | 869.45 ± 0.7 | 865.1 ± 0.69
x2 = 0.1391 | 899.18 ± 0.71 | 894.73 ± 0.69 | 890.29 ± 0.69 | 885.85 ± 0.7 | 881.41 ± 0.7 | 876.97 ± 0.71 | 872.53 ± 0.7
x2 = 0.2103 | 907.48 ± 0.73 | 902.95 ± 0.7 | 898.42 ± 0.7 | 893.89 ± 0.71 | 889.36 ± 0.72 | 884.83 ± 0.72 | 880.3 ± 0.71
x2 = 0.2853 | 916.69 ± 0.74 | 912.06 ± 0.71 | 907.43 ± 0.72 | 902.8 ± 0.73 | 898.17 ± 0.73 | 893.55 ± 0.74 | 888.93 ± 0.72
x2 = 0.3543 | 925.67 ± 0.76 | 920.95 ± 0.73 | 916.23 ± 0.73 | 911.51 ± 0.74 | 906.79 ± 0.74 | 902.08 ± 0.75 | 897.37 ± 0.73
x2 = 0.4293 | 936 ± 0.78 | 931.18 ± 0.74 | 926.36 ± 0.75 | 921.55 ± 0.75 | 916.74 ± 0.76 | 911.93 ± 0.76 | 907.12 ± 0.74
x2 = 0.5092 | 947.69 ± 0.8 | 942.77 ± 0.76 | 937.85 ± 0.77 | 932.93 ± 0.77 | 928.02 ± 0.77 | 923.11 ± 0.78 | 918.2 ± 0.76
x2 = 0.581 | 958.89 ± 0.81 | 953.86 ± 0.78 | 948.83 ± 0.78 | 943.81 ± 0.78 | 938.79 ± 0.79 | 933.77 ± 0.8 | 928.75 ± 0.77
x2 = 0.6518 | 970.57 ± 0.83 | 965.44 ± 0.79 | 960.31 ± 0.79 | 955.19 ± 0.8 | 950.07 ± 0.8 | 944.95 ± 0.81 | 939.83 ± 0.79
x2 = 0.7248 | 983.38 ± 0.84 | 978.14 ± 0.81 | 972.9 ± 0.81 | 967.66 ± 0.82 | 962.43 ± 0.82 | 957.2 ± 0.83 | 951.97 ± 0.8
x2 = 0.7888 | 995.25 ± 0.86 | 989.91 ± 0.82 | 984.57 ± 0.83 | 979.23 ± 0.83 | 973.9 ± 0.83 | 968.57 ± 0.84 | 963.24 ± 0.82
x2 = 0.8595 | 1009.11 ± 0.88 | 1003.66 ± 0.84 | 998.21 ± 0.84 | 992.77 ± 0.85 | 987.33 ± 0.85 | 981.89 ± 0.86 | 976.45 ± 0.83
x2 = 0.9298 | 1023.75 ± 0.9 | 1018.19 ± 0.85 | 1012.63 ± 0.86 | 1007.08 ± 0.86 | 1001.53 ± 0.87 | 995.99 ± 0.87 | 990.45 ± 0.84

C1COCCO1 [1,4-dioxane] + Cc1ccccc1
mass density [kg/m3]
Settings | 288.15 K | 293.15 K | 298.15 K | 303.15 K | 308.15 K | 313.15 K | 318.15 K
x1 = 0.0688 | 881.09 ± 0.74 | 876.32 ± 0.72 | 871.54 ± 0.73 | 866.76 ± 0.73 | 861.99 ± 0.74 | 857.21 ± 0.74 | 852.43 ± 0.74
x1 = 0.1373 | 890.67 ± 0.75 | 885.84 ± 0.73 | 881 ± 0.74 | 876.16 ± 0.74 | 871.33 ± 0.75 | 866.49 ± 0.75 | 861.65 ± 0.75
x1 = 0.2112 | 901.34 ± 0.76 | 896.45 ± 0.74 | 891.55 ± 0.75 | 886.65 ± 0.75 | 881.75 ± 0.76 | 876.85 ± 0.76 | 871.95 ± 0.75
x1 = 0.2858 | 912.47 ± 0.78 | 907.51 ± 0.75 | 902.55 ± 0.76 | 897.58 ± 0.76 | 892.62 ± 0.77 | 887.66 ± 0.77 | 882.7 ± 0.77
x1 = 0.3552 | 923.15 ± 0.79 | 918.13 ± 0.76 | 913.11 ± 0.77 | 908.08 ± 0.78 | 903.06 ± 0.78 | 898.04 ± 0.79 | 893.02 ± 0.78
x1 = 0.4361 | 936.02 ± 0.8 | 930.92 ± 0.78 | 925.82 ± 0.78 | 920.72 ± 0.79 | 915.63 ± 0.79 | 910.54 ± 0.8 | 905.45 ± 0.79
x1 = 0.5064 | 947.57 ± 0.81 | 942.41 ± 0.79 | 937.25 ± 0.79 | 932.09 ± 0.8 | 926.93 ± 0.8 | 921.77 ± 0.81 | 916.61 ± 0.8
x1 = 0.5819 | 960.38 ± 0.82 | 955.15 ± 0.8 | 949.92 ± 0.81 | 944.69 ± 0.81 | 939.46 ± 0.82 | 934.23 ± 0.82 | 929 ± 0.81
x1 = 0.6506 | 972.39 ± 0.83 | 967.1 ± 0.81 | 961.8 ± 0.82 | 956.5 ± 0.82 | 951.21 ± 0.82 | 945.92 ± 0.83 | 940.63 ± 0.82
x1 = 0.7212 | 985.11 ± 0.84 | 979.74 ± 0.82 | 974.37 ± 0.83 | 969.01 ± 0.83 | 963.65 ± 0.84 | 958.29 ± 0.84 | 952.93 ± 0.83
x1 = 0.7903 | 997.93 ± 0.86 | 992.49 ± 0.83 | 987.06 ± 0.84 | 981.63 ± 0.84 | 976.2 ± 0.85 | 970.77 ± 0.85 | 965.34 ± 0.84
x1 = 0.864 | 1012.02 ± 0.87 | 1006.51 ± 0.84 | 1001 ± 0.85 | 995.5 ± 0.85 | 989.99 ± 0.86 | 984.49 ± 0.86 | 978.99 ± 0.85
x1 = 0.9336 | 1025.74 ± 0.88 | 1020.16 ± 0.86 | 1014.58 ± 0.86 | 1009.01 ± 0.86 | 1003.44 ± 0.87 | 997.87 ± 0.88 | 992.3 ± 0.86
x1 = 1 | 1039.23 ± 0.87 | 1033.59 ± 0.87 | 1027.95 ± 0.87 | 1022.32 ± 0.88 | 1016.68 ± 0.88 | 1011.05 ± 0.89 | 1005.42 ± 0.89

C1COCCO1 [1,4-dioxane] + c1ccccc1
mass density [kg/m3]
Settings | 288.15 K | 293.15 K | 298.15 K | 303.15 K | 308.15 K | 313.15 K | 318.15 K
x1 = 0.0713 | 895.16 ± 0.81 | 889.77 ± 0.81 | 884.38 ± 0.81 | 878.99 ± 0.82 | 873.6 ± 0.82 | 868.22 ± 0.82 | 862.84 ± 0.83
x1 = 0.1403 | 905.71 ± 0.82 | 900.28 ± 0.81 | 894.85 ± 0.82 | 889.42 ± 0.82 | 883.99 ± 0.83 | 878.58 ± 0.83 | 873.17 ± 0.83
x1 = 0.2123 | 916.74 ± 0.83 | 911.28 ± 0.82 | 905.82 ± 0.82 | 900.36 ± 0.83 | 894.9 ± 0.83 | 889.45 ± 0.84 | 884 ± 0.84
x1 = 0.2809 | 927.28 ± 0.83 | 921.79 ± 0.83 | 916.3 ± 0.83 | 910.81 ± 0.84 | 905.32 ± 0.84 | 899.84 ± 0.84 | 894.36 ± 0.85
x1 = 0.3528 | 938.34 ± 0.84 | 932.82 ± 0.83 | 927.31 ± 0.84 | 921.8 ± 0.84 | 916.28 ± 0.85 | 910.77 ± 0.85 | 905.26 ± 0.85
x1 = 0.4195 | 948.63 ± 0.85 | 943.09 ± 0.84 | 937.55 ± 0.84 | 932.01 ± 0.85 | 926.47 ± 0.85 | 920.94 ± 0.86 | 915.41 ± 0.86
x1 = 0.5037 | 961.65 ± 0.85 | 956.08 ± 0.85 | 950.51 ± 0.85 | 944.94 ± 0.85 | 939.38 ± 0.86 | 933.82 ± 0.86 | 928.26 ± 0.87
x1 = 0.58 | 973.48 ± 0.86 | 967.89 ± 0.85 | 962.3 ± 0.85 | 956.71 ± 0.86 | 951.12 ± 0.86 | 945.54 ± 0.87 | 939.96 ± 0.87
x1 = 0.6504 | 984.43 ± 0.86 | 978.82 ± 0.85 | 973.21 ± 0.86 | 967.6 ± 0.86 | 962 ± 0.87 | 956.4 ± 0.87 | 950.8 ± 0.87
x1 = 0.7197 | 995.23 ± 0.86 | 989.61 ± 0.86 | 983.99 ± 0.86 | 978.37 ± 0.87 | 972.75 ± 0.87 | 967.13 ± 0.87 | 961.52 ± 0.88
x1 = 0.7822 | 1005 ± 0.87 | 999.37 ± 0.86 | 993.74 ± 0.86 | 988.11 ± 0.87 | 982.48 ± 0.87 | 976.85 ± 0.88 | 971.23 ± 0.88
x1 = 0.8561 | 1016.58 ± 0.87 | 1010.94 ± 0.86 | 1005.3 ± 0.87 | 999.66 ± 0.87 | 994.02 ± 0.88 | 988.39 ± 0.88 | 982.76 ± 0.88
x1 = 0.9287 | 1027.99 ± 0.87 | 1022.35 ± 0.86 | 1016.71 ± 0.87 | 1011.07 ± 0.87 | 1005.43 ± 0.88 | 999.79 ± 0.88 | 994.15 ± 0.89
x1 = 1 | 1039.23 ± 0.87 | 1033.59 ± 0.87 | 1027.95 ± 0.87 | 1022.32 ± 0.88 | 1016.68 ± 0.88 | 1011.05 ± 0.89 | 1005.42 ± 0.89
